“Also recorded” adds a separate entry of the source.
How the values were obtained:
[1] = tested on: ovariectomized rats, ischemia induced by middle cerebral artery occlusion (MCAO); test: Ischemic area in brain slices after MCAO, estrogen pretreatment; type: in vivo, rat; conditions: for reduction of ischemic area vs sham: Silastic tube 24 h prior to MCAO, sacrifice 24 h after MCAO
[2] = tested on: primary rat brain capillary endothelial cells (BCEC); test: BCEC mortality under hypoglycemia (Trypan blue); type: cell-based; conditions: 2 nM; normal glucose 200 mg %
Procedure: Hypoglycemia experiments were undertaken. […] The glucose concentration of the culture media was then adjusted from 20 mg % to 200 mg % by adding appropriate amount of D-(+)-glucose to the glucose-free media and monitored by Glucose and L-Lactate Analyzer (YSI model 2300 STAT plus, YSI, Inc., Yellow Springs, Ohio). The hypoglycemic cultures were maintained for 24 hours or 48 hours prior to staining with Trypan blue. Cell mortality was counted using Trypan blue staining method. Cell death percentage was calculated as dead cell/alive cell×100%. Statistical methods used included two-way analysis of variance, applied to determine the significance of the difference among the experimental groups. Kruskal-Wallis nonparametric analysis was used for data presented as percentage. […] P<0.05 was considered significant.

[3] = tested on: primary rat brain capillary endothelial cells (BCEC); test: BCEC mortality under combined anoxia and hypoglycemia (Trypan blue); conditions: 2 nM; 100 mg % hypoglycemia and anoxia 2 hours
Procedure: Cell media contained 200 mg % or 100 mg % glucose. Culture dishes containing BCEC were placed in either an incubator or a nitrogen filled chamber for two hours. Trypan blue staining was used to distinguish live cells from dead cells. Two cell countings at two different hemacytometer squares were averaged. Mean±SEM are depicted (n=8.12). *<0.05 vs. corresponding vehicle control.
Nitrogen gas was influxed to replace the oxygen inside the chamber. The chamber was sealed and placed in the incubator for four hours for nonhypoglycemic cultures and 2 hours for hypoglycemic cultures.
Cell mortality was counted using Trypan blue staining method. Cell death percentage was calculated as dead cell/alive cell×100%.
Statistical methods used included two-way analysis of variance, applied to determine the significance of the difference among the experimental groups. Kruskal-Wallis nonparametric analysis was used for data presented as percentage. […] P<0.05 was considered significant.

[4] = Blood levels after single subcutaneous bolus injection in corn oil (radioimmunoassay); type: in vivo, male Sprague-Dawley rats; conditions: 100 μg/kg sc in corn oil
Procedure: The drug was dissolved in corn oil at 100 μg/ml and the final dosage delivered was 100 μg/kg. […] Venous blood was collected into heparinized tubes, centrifuged and the plasma was collected and frozen. Levels of 17β-estradiol were determined using a commercially supplied radioimmunoassay kit.

[5] = tested on: ovariectomized rats, ischemia induced by middle cerebral artery occlusion (MCAO); test: Ischemic area in brain slices after MCAO, estrogen post-treatment at 40 or 90 minutes; type: in vivo, rat; conditions: administered 90 minutes after MCAO
[6] = tested on: ovariectomized rats, ischemia induced by middle cerebral artery occlusion (MCAO); test: Ischemic lesion volume (TTC) after MCAO, post-treatment at 0.5-4 hours; type: in vivo, rat; conditions: iv 100 μg/kg HPCD-complexed plus Silastic pellet at 0.5, 1, 2, or 3 hours post-occlusion; 48 hours after MCAO

C[C@]12CC[C@@H]3c4ccc(O)cc4CC[C@H]3[C@@H]1CC[C@H]2O [17α-estradiol]
reduction of ischemic area vs sham ([1]; slice C): 55% | reduction of ischemic area vs sham ([1]; slice D): 66% | reduction of ischemic area vs sham ([1]; slice E): 81% | protective effect on ischemic area (in words) ([1]; tissue slices A-E, sustained subcutaneous delivery initiated 24 hours prior): significant protective effect; also recorded: smaller ischemic areas compared with the sham treated animals in all slices evaluated

C[C@]12CC[C@@H]3c4ccc(O)cc4CC[C@H]3[C@@H]1CC[C@@H]2O [17β-estradiol]
difference in % cell death with and without estrogen (in words) [2]: little difference | protection of BCEC (in words) [3]: effective in protecting cultured BCEC | blood level ([4]; 30 minutes after administration (peak)): 4,610 pg/ml | blood level ([4]; 4 hours): 2,004 pg/ml | blood level (in words) ([4]; by 25 hours): near zero | reduction of ischemic area [5]: 31% | ischemic area, percent of cross-sectional area of brain sections evaluated ([1]; pretreatment 24 h prior to MCAO, 3 brain slices, sham 25.6±5.7%): 9.8±4.0% | protective effect on ischemic area (in words) ([1]; tissue slices A-D, subcutaneous injection two hours prior to ischemic event): significant protective effect | protection, ischemic lesion volume (in words) [6]: significant protection

From patent US6339078B1, “Methods of prevention and treatment of ischemic damage” (University of Florida Research Foundation, Inc., priority 1999, dated 2002)
